Assay results taken from PubChem BioAssay (NCI).
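Values below derive from 48-hour exposures of cells grown in 96-well plates, with endpoints linearly interpolated between the two concentrations bracketing the appropriate inhibition level. TGI: total growth inhibition.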

Experiments:
Experiment in all cases: growth of human tumour cells (NCI), 48 h
[1] = test system: SF-268 CNS
[2] = test system: NCI/ADR-RES ovarian
[3] = test system: HL-60(TB) leukemia
[4] = test system: U251 CNS
[5] = test system: M14 melanoma
[6] = test system: T-47D breast
[7] = test system: DU-145 prostate
[8] = test system: HOP-92 NSCLC
[9] = test system: MDA-N
[10] = test system: NCI-H460 lung
[11] = test system: UACC-62 melanoma
[12] = test system: TK-10 renal
[13] = test system: KM12 colon
[14] = test system: SK-MEL-5 melanoma
[15] = test system: UACC-257 melanoma
[16] = test system: UO-31 renal
[17] = test system: HCC-2998 colon
[18] = test system: SW-620 colon
[19] = test system: NCI-H23 lung
[20] = test system: OVCAR-3 ovarian
[21] = test system: IGROV1 ovarian
[22] = test system: CCRF-CEM leukemia
[23] = test system: COLO 205 colon
[24] = test system: ACHN renal
[25] = test system: HCT-116 colon
[26] = test system: SNB-75 CNS
[27] = test system: 786-0 renal
[28] = test system: HS 578T breast
[29] = test system: HT29 colon
[30] = test system: K-562 leukemia
[31] = test system: NCI-H226 lung
[32] = test system: OVCAR-5 ovarian
[33] = test system: OVCAR-4 ovarian
[34] = test system: LOX IMVI melanoma
[35] = test system: BT-549 breast
[36] = test system: A498 renal
[37] = test system: CAKI-1 renal
[38] = test system: SN12C renal
[39] = test system: SNB-19 CNS
[40] = test system: SK-OV-3 ovarian
[41] = test system: MALME-3M melanoma
[42] = test system: HCT-15 colon
[43] = test system: OVCAR-8 ovarian
[44] = test system: RPMI-8226 leukemia
[45] = test system: MCF7 breast
[46] = test system: SF-295 CNS
[47] = test system: EKVX NSCLC
[48] = test system: MDA-MB-435
[49] = test system: MDA-MB-231 breast
[50] = test system: SK-MEL-28 melanoma
[51] = test system: PC-3 prostate
[52] = test system: RXF 393 renal
[53] = test system: MOLT-4 leukemia
[54] = test system: HOP-62 NSCLC
[55] = test system: SK-MEL-2 melanoma
[56] = test system: A549 NSCLC
[57] = test system: NCI-H522 lung
[58] = test system: SR leukemia
[59] = test system: SF-539 CNS

CCN1CCC(O)(c2ccc(Oc3ccc(C)cc3)cc2)C(C(=O)c2ccc(Oc3ccc(C)cc3)cc2)C1 (stereo unspecified)
TGI [1]: 32.9 µM
TGI [2]: 28.2 µM
TGI [3]: 3.7 µM
TGI [4]: 23.7 µM
TGI [5]: 30.6 µM
TGI [6]: 33.7 µM
TGI [7]: 20.1 µM
TGI [8]: 21.7 µM
TGI [9]: 22.6 µM
TGI [10]: 13.8 µM
TGI [11]: 24.5 µM
TGI [12]: 20.8 µM
TGI [13]: 17.8 µM
TGI [14]: 20.4 µM
TGI [15]: 26.7 µM
TGI [16]: 20.6 µM
TGI [17]: 20.8 µM
TGI [18]: 27.7 µM
TGI [19]: 30.2 µM
TGI [20]: 36.9 µM
TGI [21]: 25 µM
TGI [22]: 21.8 µM
TGI [23]: 26.1 µM
TGI [24]: 25.9 µM
TGI [25]: 19 µM
TGI [26]: 20.4 µM
TGI [27]: 17.2 µM
TGI [28]: 48.3 µM
TGI [29]: 14.2 µM
TGI [30]: > 100 µM
TGI [31]: 27.9 µM
TGI [32]: 32.1 µM
TGI [33]: 17.3 µM
TGI [34]: 13.5 µM
TGI [35]: 22.4 µM
TGI [36]: 6.39 µM
TGI [37]: 25.8 µM
TGI [38]: 30.7 µM
TGI [39]: 27.2 µM
TGI [40]: 29.7 µM
TGI [41]: 29.7 µM
TGI [42]: 15.2 µM
TGI [43]: 28.2 µM
TGI [44]: 4.26 µM
TGI [45]: 8.41 µM
TGI [46]: 21.4 µM
TGI [47]: 29 µM
TGI [48]: 24.9 µM
TGI [49]: 20.4 µM
TGI [50]: 23.3 µM
TGI [51]: 24.5 µM
TGI [52]: 16.2 µM
TGI [53]: 69.1 µM
TGI [54]: 35.5 µM
TGI [55]: 35.9 µM
TGI [56]: 26.8 µM

O=C(CC1C=CCS1(=O)=O)NCc1ccccc1 (stereo unspecified)
TGI [1]: > 100 µM
TGI [2]: > 100 µM
TGI [3]: > 100 µM
TGI [4]: > 100 µM
TGI [5]: > 100 µM
TGI [6]: > 100 µM
TGI [7]: > 100 µM
TGI [8]: > 100 µM
TGI [9]: > 100 µM
TGI [10]: > 100 µM
TGI [11]: > 100 µM
TGI [12]: > 100 µM
TGI [13]: > 100 µM
TGI [14]: > 100 µM
TGI [57]: > 100 µM
TGI [15]: > 100 µM
TGI [16]: > 100 µM
TGI [17]: > 100 µM
TGI [18]: > 100 µM
TGI [19]: > 100 µM
TGI [20]: > 100 µM
TGI [58]: > 100 µM
TGI [21]: > 100 µM
TGI [22]: > 100 µM
TGI [23]: > 100 µM
TGI [24]: > 100 µM
TGI [25]: > 100 µM
TGI [26]: > 100 µM
TGI [27]: > 100 µM
TGI [28]: > 100 µM
TGI [29]: > 100 µM
TGI [30]: > 100 µM
TGI [31]: > 100 µM
TGI [32]: > 100 µM
TGI [33]: > 100 µM
TGI [34]: > 100 µM
TGI [35]: > 100 µM
TGI [37]: > 100 µM
TGI [38]: > 100 µM
TGI [39]: > 100 µM
TGI [40]: > 100 µM
TGI [42]: > 100 µM
TGI [43]: > 100 µM
TGI [45]: > 100 µM
TGI [46]: > 100 µM
TGI [47]: > 100 µM
TGI [48]: > 100 µM
TGI [49]: > 100 µM
TGI [59]: > 100 µM
TGI [50]: > 100 µM
TGI [51]: > 100 µM
TGI [52]: > 100 µM
TGI [53]: > 100 µM
TGI [54]: > 100 µM
TGI [56]: > 100 µM
